In patent US7732493B2, “2-substituted D-homo-estra-1,3,5(10)-trienes as inhibitors of 17β-hydroxy steroid dehydrogenase type 1” (Bayer Schering Pharma Aktiengesellschaft, priority 2004, dated 2010):

What follows are molecules tested against T1, human 17β-hydroxy steroid dehydrogenase type 1 (17β-HSD1) (Homo sapiens, UniProt P14061) (assay: Inhibition of the activity of human 17β-hydroxy steroid dehydrogenase type 1 (3H-labeled substrate conversion, HPLC)). Details: human enzyme over-expressed in E. coli, bacterial suspension, 37° C., double determination; read-out: 17βHSD1 IC50.
T1 construct: made in house; host or cells: E. coli
T1 sequence (P14061 1-328): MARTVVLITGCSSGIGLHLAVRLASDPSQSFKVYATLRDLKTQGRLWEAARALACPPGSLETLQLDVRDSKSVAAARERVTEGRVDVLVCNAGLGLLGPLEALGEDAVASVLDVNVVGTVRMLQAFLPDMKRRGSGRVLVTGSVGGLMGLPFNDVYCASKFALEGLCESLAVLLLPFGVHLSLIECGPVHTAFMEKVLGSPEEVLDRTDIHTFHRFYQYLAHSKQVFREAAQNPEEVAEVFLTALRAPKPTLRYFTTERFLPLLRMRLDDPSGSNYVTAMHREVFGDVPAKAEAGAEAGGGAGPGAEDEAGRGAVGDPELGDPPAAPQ
Assay type: biochemical
Excerpt: The test process is well described in the literature [Adamski, J., Sierralta, W. D., Jungblut, P. W., Acta Endocrinol (Copenh.) 121(2) (1989), 161-7] and is depicted below.
Human 17β-hydroxy steroid dehydrogenases (17β-HSDs) are over-expressed in E. coli bacteria as His-Tag proteins or as GST-fusion proteins. The suspensions of the bacterial pellets in isotonic common salt solution are used for the determination of enzyme activities of the 17β-HSDs or for the study of their influence by potential inhibitors (estrogen derivatives).
The measurements are made in double determination and, if necessary, at various concentrations of potential inhibitors (e.g., in determining the IC50 values). In addition to the target enzyme 17β-HSD1, other steroid-metabolizing enzymes are included in the test to study cross reactivities of estrogen derivatives.
The incubation of the samples is carried out at 37° C. in a water bath while being shaken, such that in the control (without substances to be tested), a conversion of about 30% is achieved.
The separation of radiolabeled substrate and product is then carried out, after extraction with 1 ml of reversed phase-(RP-18)-cartridges, by means of HPLC on an RP18 column with acetonitrile:water 1:1 (v/v) as a mobile phase. The radioactivity is detected with the aid of a flow-scintillation counter.
The evaluation of the substrate conversion with and without substances to be tested is performed by the integration of the substrate and product peaks. The conversion of the control is normalized to 100% conversion.

Molecule | IC50 [nM]
2-Bromo-17a-oxo-17a-homoestra-1,3,5(10)-trien-3-ol [Example 3] | 52
2-Iodo-17a-oxo-17a-homoestra-1,3,5(10)-trien-3-ol [Example 4] | 52
COc1cc2c(cc1O)CC[C@@H]1[C@@H]2CC[C@]2(C)C(=O)CCC[C@@H]12 [Example 1, 2-Methoxy-17a-oxo-17a-homoestra-1,3,5(10)-trien-3-ol] | 85
C=CCc1cc2c(cc1O)CC[C@@H]1[C@@H]2CC[C@]2(C)C(=O)CCC[C@@H]12 [Example 7, 2-Allyl-17a-oxo-17a-homoestra-1,3,5(10)-trien-3-ol] | 24
